For orientation: EC50 means the concentration that produces a half-maximal response. Low readings indicate higher potency in that assay, high ones lower potency in that assay.

The test system of the first assay is P. falciparum Dd2. As to the kind of experiment: Activity against the Dd2 strain of P. falciparum (SYBR Green I, 72 h). It counts as cell-based. Conditions: P. falciparum Dd2, 72 h incubation. The method, boiled down:
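Parasites in human RBCs at 1% parasitemia and 1.0% hematocrit, exposed to compounds (0.125% DMSO) for 72 h at 37°C under 93% N2/4% CO2/3% O2. SYBR Green I in saponin/Triton lysis buffer added, 24 h staining, fluorescence read at 485/530 nm. EC50 derived against 20 μM mefloquine background and DMSO baseline.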
Take `O=C(Nc1ccccc1)N1CCCCN2[C@H](CO)[C@H](c3ccc(C#Cc4ccccc4)cc3)[C@@H]2C1` [Compound 78, (8R,9R,10S)-10-(hydroxymethyl)-N-phenyl-9-[4-(2-phenylethynyl)phenyl]-1,6-diazabicyclo[6.2.0] decane-6-carboxamide]: the half-maximal effective concentration (EC50) was determined as 61 nM.

Still in this assay, the particulars now being: Plasmodium falciparum, DD2, 72 h, P. falciparum Dd2, 72 h incubation.
In turn, `CNC[C@@H]1[C@H](c2ccc(C#Cc3ccccc3)cc2)[C@@H]2CN(C(=O)Nc3ccc(OC)cc3)CCCCN12` [Compound 61, (8R,9S,10S)-N-(4-methoxyphenyl)-10-[(methylamino)methyl]-9-[4-(2-phenylethynyl)phenyl]-1,6-diazabicyclo[6.2.0] decane-6-carboxamide] displayed an EC50 of 47 nM.

`COc1ccc(N(C)C(=O)N2CCCCN3[C@H](CO)[C@H](c4ccc(C#Cc5ccccc5)cc4)[C@@H]3C2)cc1` [Compound 62, (8R,9R,10S)-10-(hydroxymethyl)-N-(4-methoxyphenyl)-N-methyl-9-[4-(2-phenylethynyl)phenyl]-1,6-diazabicyclo[6.2.0] decane-6-carboxamide] showed an EC50 of 4430 nM.

Molecule `COc1ccc(CN2CCCCN3[C@H](CO)[C@H](c4ccc(C#Cc5ccccc5)cc4)[C@@H]3C2)cc1` [Compound 63, [(8R,9R,10S)-6-[(4-methoxyphenyl)methyl]-9-[4-(2-phenylethynyl)phenyl]-1,6-diazabicyclo[6.2.0]decan-10-yl]methanol] gave an EC50 of 1230 nM.

`COc1ccc(NC(=O)N2CCCCN3[C@H](CO)[C@H](c4ccc(-c5cccnc5)cc4)[C@@H]3C2)cc1` [Compound 64, (8R,9R,10S)-10-(hydroxymethyl)-N-(4-methoxyphenyl)-9-[4-(pyridin-3-yl)phenyl]-1,6-diazabicyclo[6.2.0] decane-6-carboxamide] showed a half-maximal effective concentration (EC50) of 1010 nM.

`COc1ccc(NC(=O)N2CCCCN3[C@H](CNC(C)=O)[C@H](c4ccc(C#Cc5ccccn5)cc4)[C@@H]3C2)cc1` [Compound 65, (8R,9S,10S)-10-(acetamidomethyl)-N-(4-methoxyphenyl)-9-{4-[2-(pyridin-2-yl)ethynyl]phenyl}-1,6-diazabicyclo[6.2.0] decane-6-carboxamide] came in with an EC50 of 110 nM.

In turn, `COc1ccc(NC(=O)N2CCCCN3[C@H](CO)[C@H](c4ccc(-c5ccn(-c6ccccc6)c5)cc4)[C@@H]3C2)cc1` [Compound 66, (8R,9R,10S)-10-(hydroxymethyl)-N-(4-methoxyphenyl)-9-[4-(1-phenyl-1H-pyrrol-3-yl)phenyl]-1,6-diazabicyclo[6.2.0] decane-6-carboxamide] registered a half-maximal effective concentration (EC50) of 1310 nM.

Take `COc1ccc(NC(=O)N2CCCCN3[C@H](CO)[C@H](c4ccc(-c5cccc(F)c5)cc4)[C@@H]3C2)cc1` [Compound 67, (8R,9R,10S)-9-[4-(3-fluorophenyl)phenyl]-10-(hydroxymethyl)-N-(4-methoxyphenyl)-1,6-diazabicyclo[6.2.0] decane-6-carboxamide]: the EC50 came to 19500 nM.

The molecule `COc1ccc(NC(=O)N2CCCCN3[C@H](CO)[C@H](c4ccc(-c5ccncc5)cc4)[C@@H]3C2)cc1` [Compound 69, (8R,9R,10S)-10-(hydroxymethyl)-N-(4-methoxyphenyl)-9-[4-(pyridin-4-yl)phenyl]-1,6-diazabicyclo[6.2.0] decane-6-carboxamide] displayed a 50% effective concentration (EC50) of 19500 nM.

With `COc1ccc(NC(=O)N2CCCCN3C[C@H](c4ccc(C#Cc5ccccc5)cc4)[C@@H]3C2)cc1` [Compound 70, (8R,9S)-N-(4-methoxyphenyl)-9-[4-(2-phenylethynyl)phenyl]-1,6-diazabicyclo[6.2.0] decane-6-carboxamide], a half-maximal response (EC50) required 13 nM.

The molecule `COc1ccc(NC(=O)N2CCCCN3[C@H](CO)[C@H](c4ccc(C#Cc5ccc(F)c(F)c5)cc4)[C@@H]3C2)cc1` [Compound 71, (8R,9R,10S)-9-{4-[2-(3,4-difluorophenyl)ethynyl]phenyl}-10-(hydroxymethyl)-N-(4-methoxyphenyl)-1,6-diazabicyclo[6.2.0] decane-6-carboxamide] returned an EC50 of 34 nM.

As to `COc1ccc(NC(=O)N2CCCCN3[C@H](CO)[C@H](c4ccc(C#Cc5ccccc5F)cc4)[C@@H]3C2)cc1` [Compound 72, (8R,9R,10S)-9-{4-[2-(2-fluorophenyl)ethynyl]phenyl}-10-(hydroxymethyl)-N-(4-methoxyphenyl)-1,6-diazabicyclo[6.2.0] decane-6-carboxamide], a half-maximal effect (EC50) was put at 17 nM.

In the case of `COc1ccc(NC(=O)N2CCCCN3[C@H](CN4CC(C)(O)C4)[C@H](c4ccc(C#Cc5ccccc5)cc4)[C@@H]3C2)cc1` [Compound 73, (8R,9S,10S)-10-[(3-hydroxy-3-methylazetidin-1-yl)methyl]-N-(4-methoxyphenyl)-9-[4-(2-phenylethynyl)phenyl]-1,6-diazabicyclo[6.2.0] decane-6-carboxamide], the response was half-maximal at 104 nM (EC50).

In turn, `COc1ccc(NC(=O)N2CCCCCN3[C@H](CO)[C@H](c4ccc(C#Cc5ccccc5)cc4)[C@@H]3C2)cc1` [Compound 74, (9R,10R,11S)-11-(hydroxymethyl)-N-(4-methoxyphenyl)-10-[4-(2-phenylethynyl)phenyl]-1,7-diazabicyclo[7.2.0] undecane-7-carboxamide] displayed an EC50 of 87 nM.

`COc1ccc(NC(=O)N2CCCCN3[C@H](CO)[C@H](c4ccc(C#Cc5ccc(F)cc5F)cc4)[C@@H]3C2)cc1` [Compound 75, (8R,9R,10S)-9-{4-[2-(2,4-difluorophenyl)ethynyl]phenyl}-10-(hydroxymethyl)-N-(4-methoxyphenyl)-1,6-diazabicyclo[6.2.0] decane-6-carboxamide] had an EC50 of 71 nM.

On to `COc1ccc(NC(=O)N2CCCCN3[C@H](CN(C)C(C)=O)[C@H](c4ccc(C#Cc5ccccc5)cc4)[C@@H]3C2)cc1` [Compound 76, (8R,9S,10S)-N-(4-methoxyphenyl)-10-[(N-methylacetamido)methyl]-9-[4-(2-phenylethynyl)phenyl]-1,6-diazabicyclo[6.2.0] decane-6-carboxamide], for which the EC50 was 8 nM.

In turn, `COc1ccc(NC(=O)N2CCCCN3[C@H](CO)[C@H](c4ccc(-c5ccn(-c6ccccc6)n5)cc4)[C@@H]3C2)cc1` [Compound 77, (8R,9R,10S)-10-(hydroxymethyl)-N-(4-methoxyphenyl)-9-[4-(1-phenyl-1H-pyrazol-3-yl)phenyl]-1,6-diazabicyclo[6.2.0] decane-6-carboxamide] had an EC50 of 4890 nM.

With `COc1ccc(NC(=O)N2CCCN3[C@H](CO)[C@H](c4ccc(C#Cc5ccccc5)cc4)[C@@H]3C2)cc1` [Compound 79, (7R,8R,9S)-9-(hydroxymethyl)-N-(4-methoxyphenyl)-8-[4-(2-phenylethynyl)phenyl]-1,5-diazabicyclo[5.2.0] nonane-5-carboxamide], the EC50 was determined as 850 nM.

With `COc1ccc(NC(=O)N2CCCCN3[C@H](COCCC(=O)O)[C@H](c4ccc(C#Cc5ccccc5)cc4)[C@@H]3C2)cc1` [Compound 80, 3-(((8R,9R,10S)-6-((4-methoxyphenyl)carbamoyl)-9-(4-(phenylethynyl)phenyl)-1,6-diazabicyclo[6.2.0]decan-10-yl)methoxy)propanoic acid], the EC50 was 23 nM.

`COc1ccc(NC(=O)N2CCCCN3[C@H](CO)[C@H](c4ccc(C#Cc5ccccc5)cn4)[C@@H]3C2)cc1` [Compound 81, (8R,9R,10S)-10-(hydroxymethyl)-N-(4-methoxyphenyl)-9-(5-(phenylethynyl)pyridin-2-yl)-1,6-diazabicyclo[6.2.0] decane-6-carboxamide] gave an EC50 of 34 nM.

Source of the values: patent US11325913B2, “Compounds and methods for the treatment of malaria” (THE BROAD INSTITUTE, INC., priority 2013, dated 2022).
